Assays:
[1] = test system: A549 (KRAS G12S) pERK: total ERK; experiment: Phospho-ERK screen in A549 (KRAS G12S); format: cell-based; conditions: 10 μM for 2 hours; for activity at 10 µM: Homo sapiens, A549, 2 h, read-out: pERK: total ERK (% relative to vehicle)
Protocol: Materials and Methods: A549 or A375 cells were seeded in 6-well plates at an appropriate seeding density on day 0. On day 2 or 3, after checking the health and confluency of cells, the media was aspirated and replaced with 1 mL media containing a predetermined concentration of compound and incubated for 2 hours. After 2 hours, the media was aspirated, and the cells washed 2 times with cold PBS. Cells were lysed on ice, with 50 uL 1×CST lysis buffer+1 mM PMSF for 5 minutes. After 5 minutes, cells were removed using a scraper and transferred to cold 1.5 mL tubes, and centrifuged for 10 min, 4° C., 14,000×g. Supernatant was gently removed and snap frozen in liquid nitrogen. Protein concentration of the lysate was determined using Bradford Reagent (analyzed using SpectraMax M2E) and diluted to 1 mg/mL or pERK or 1.5 mg/mL for pMEK analysis. Cell lysates were then analyzed for phosphor-ERK/total-ERK levels on a Jess system (ProteinSimple; Cat #JS3346) using the following antibodies: tERK1/2 (CST 4696; 1:50) and pERK1/2 (CST 4377; 1:50). For pMEK/tMEK, the following antibodies were used: tMEK1/2 (CST 4694; 1:15) and pMEK1/2 (CST 9154; 1:400). All dilutions were in Milk-free antibody diluent.
The results of a phospho-ERK Screen in A549 (KRAS G12S) study is described in Table 7, 7A, 7B, and 8 below.

A549 pERK = experiment: A549-pERK, 2 h (quantitative Western, Jess); format: cell-based; conditions: Homo sapiens, A549, 2 h, phospho:total ratio normalized to DMSO control; for activity at 0.01 µM: 10 nM
Summary of the method: (§1)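 Cells treated in duplicate for 2 h with compound, lysed and protein-normalised (1 mg/mL pERK, 1.5 mg/mL pMEK). Quantitative capillary Western; phospho/total protein ratio normalised to DMSO.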

[2] = Microsome stability, CD-1 mouse; conditions: microsomes, 2 μM
[3] = Microsome stability, human; format: in vitro ADME; conditions: microsomes, 2 μM
CYP450 3A4 = CYP450 3A4 (Homo sapiens, UniProt P08684); experiment: CYP450 panel, 3A4; conditions: 10 μM
hERG Channel = hERG Channel (Homo sapiens, UniProt Q12809); experiment: in vitro
CYP450 1A2 = target: T1, CYP450 1A2 (Homo sapiens, UniProt P05177); experiment: CYP450 panel, 1A2; format: in vitro ADME; conditions: 10 μM; substrate phenacetin
T1 sequence (P05177 1-516): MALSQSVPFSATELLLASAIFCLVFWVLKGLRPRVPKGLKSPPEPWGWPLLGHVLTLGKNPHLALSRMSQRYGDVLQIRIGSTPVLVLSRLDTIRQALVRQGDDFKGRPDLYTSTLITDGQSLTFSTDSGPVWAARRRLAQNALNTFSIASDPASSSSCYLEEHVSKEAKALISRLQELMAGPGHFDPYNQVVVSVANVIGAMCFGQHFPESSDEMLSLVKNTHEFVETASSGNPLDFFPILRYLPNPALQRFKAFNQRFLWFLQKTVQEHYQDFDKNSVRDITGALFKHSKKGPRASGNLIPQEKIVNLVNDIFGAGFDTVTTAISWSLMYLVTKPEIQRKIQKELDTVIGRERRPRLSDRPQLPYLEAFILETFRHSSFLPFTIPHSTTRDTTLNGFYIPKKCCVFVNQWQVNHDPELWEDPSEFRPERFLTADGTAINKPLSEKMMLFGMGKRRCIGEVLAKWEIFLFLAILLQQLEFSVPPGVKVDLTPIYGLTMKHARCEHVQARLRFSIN

CYP450 2D6 = CYP450 2D6 (Homo sapiens, UniProt P10635); experiment: CYP450 panel, 2D6; conditions: 10 μM; substrate dextromethophan
CYP450 2C19 = CYP450 2C19 (Homo sapiens, UniProt P33261); experiment: CYP450 panel, 2C19; conditions: 10 μM; substrate mephenytoin
CYP450 2B6 = target: T2, CYP450 2B6 (Homo sapiens, UniProt P20813); experiment: CYP450 panel, 2B6; conditions: 10 μM; substrate bupropion
T2 sequence (P20813 1-491): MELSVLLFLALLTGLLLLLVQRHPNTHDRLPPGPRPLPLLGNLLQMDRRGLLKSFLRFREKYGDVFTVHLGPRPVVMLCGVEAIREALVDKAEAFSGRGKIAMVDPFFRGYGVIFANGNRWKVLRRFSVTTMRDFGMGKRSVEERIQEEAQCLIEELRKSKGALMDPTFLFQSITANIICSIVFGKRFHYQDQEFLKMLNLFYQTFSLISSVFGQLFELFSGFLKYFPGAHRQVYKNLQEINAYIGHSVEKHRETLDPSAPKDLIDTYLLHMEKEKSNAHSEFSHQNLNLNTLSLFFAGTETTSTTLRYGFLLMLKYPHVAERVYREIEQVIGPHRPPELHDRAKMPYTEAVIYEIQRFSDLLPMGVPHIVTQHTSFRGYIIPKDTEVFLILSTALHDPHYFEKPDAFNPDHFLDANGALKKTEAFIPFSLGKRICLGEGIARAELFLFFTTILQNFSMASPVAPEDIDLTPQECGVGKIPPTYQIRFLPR

Plasma stability, human = format: in vitro ADME; conditions: 2 μM
CYP450 2C8 = target: T3, CYP450 2C8 (Homo sapiens, UniProt P10632); experiment: CYP450 panel, 2C8; conditions: 10 μM; substrate amodiaquine
T3 sequence (P10632 1-490): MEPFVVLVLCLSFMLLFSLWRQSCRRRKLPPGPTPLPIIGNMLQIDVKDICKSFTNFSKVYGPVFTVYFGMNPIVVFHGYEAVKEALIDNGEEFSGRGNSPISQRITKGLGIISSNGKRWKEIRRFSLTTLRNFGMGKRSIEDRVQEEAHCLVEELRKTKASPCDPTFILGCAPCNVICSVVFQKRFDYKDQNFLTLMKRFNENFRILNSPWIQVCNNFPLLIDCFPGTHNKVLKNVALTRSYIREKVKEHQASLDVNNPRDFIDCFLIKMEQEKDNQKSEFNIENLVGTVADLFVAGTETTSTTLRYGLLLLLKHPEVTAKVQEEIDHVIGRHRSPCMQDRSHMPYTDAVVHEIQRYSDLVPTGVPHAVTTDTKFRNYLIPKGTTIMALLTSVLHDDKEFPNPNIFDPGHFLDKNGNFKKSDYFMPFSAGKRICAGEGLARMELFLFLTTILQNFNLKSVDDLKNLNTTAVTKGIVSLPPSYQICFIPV

[4] = Plasma stability, CD-1 mouse; format: in vitro ADME; conditions: 2 μM
[5] = Plasma stability, beagle dog; format: in vitro ADME; conditions: 2 μM
CYP450 2C9 = CYP450 2C9 (Homo sapiens, UniProt P11712); experiment: CYP450 panel, 2C9; conditions: 10 μM; substrate Diclofenac
[6] = Microsome stability, beagle dog; format: in vitro ADME; conditions: microsomes, 2 μM
[7] = test system: A549 CRAF BP (MEK phosphorylation); experiment: A549-CRAF BP 100 nM, 2 h (pMEK); format: cell-based; conditions: Homo sapiens, A549, 2 h, phospho:total ratio normalized to DMSO control
Summary of the method: as §1

Chain of CYP450 3A4 (P08684 whole entry): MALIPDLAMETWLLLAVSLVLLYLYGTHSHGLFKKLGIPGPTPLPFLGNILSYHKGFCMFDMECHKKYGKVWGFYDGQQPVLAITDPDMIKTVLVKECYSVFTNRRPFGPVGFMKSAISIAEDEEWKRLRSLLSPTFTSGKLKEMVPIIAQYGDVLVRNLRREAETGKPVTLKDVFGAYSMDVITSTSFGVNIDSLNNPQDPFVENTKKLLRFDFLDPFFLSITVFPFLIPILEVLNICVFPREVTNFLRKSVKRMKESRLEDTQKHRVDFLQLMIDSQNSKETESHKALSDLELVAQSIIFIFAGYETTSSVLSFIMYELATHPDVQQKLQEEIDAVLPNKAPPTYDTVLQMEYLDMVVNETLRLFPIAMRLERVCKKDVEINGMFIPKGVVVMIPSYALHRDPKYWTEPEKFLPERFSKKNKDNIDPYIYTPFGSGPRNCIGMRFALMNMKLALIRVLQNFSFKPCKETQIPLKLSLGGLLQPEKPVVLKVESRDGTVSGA
Chain of CYP450 2C9 (P11712 whole entry): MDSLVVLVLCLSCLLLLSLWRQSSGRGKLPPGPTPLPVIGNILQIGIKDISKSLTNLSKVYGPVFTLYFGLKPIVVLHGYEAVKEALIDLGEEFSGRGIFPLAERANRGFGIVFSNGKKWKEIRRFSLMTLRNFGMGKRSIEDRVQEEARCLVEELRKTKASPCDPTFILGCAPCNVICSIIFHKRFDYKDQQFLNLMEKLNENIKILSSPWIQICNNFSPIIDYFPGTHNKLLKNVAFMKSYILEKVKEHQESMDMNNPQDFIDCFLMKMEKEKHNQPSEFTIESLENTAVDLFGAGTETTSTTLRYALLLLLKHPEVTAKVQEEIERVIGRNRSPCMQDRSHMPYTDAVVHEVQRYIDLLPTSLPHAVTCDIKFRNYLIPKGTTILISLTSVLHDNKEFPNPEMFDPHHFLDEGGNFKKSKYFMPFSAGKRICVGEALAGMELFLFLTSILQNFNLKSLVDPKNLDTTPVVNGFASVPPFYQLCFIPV
Chain of CYP450 2D6 (P10635 whole entry): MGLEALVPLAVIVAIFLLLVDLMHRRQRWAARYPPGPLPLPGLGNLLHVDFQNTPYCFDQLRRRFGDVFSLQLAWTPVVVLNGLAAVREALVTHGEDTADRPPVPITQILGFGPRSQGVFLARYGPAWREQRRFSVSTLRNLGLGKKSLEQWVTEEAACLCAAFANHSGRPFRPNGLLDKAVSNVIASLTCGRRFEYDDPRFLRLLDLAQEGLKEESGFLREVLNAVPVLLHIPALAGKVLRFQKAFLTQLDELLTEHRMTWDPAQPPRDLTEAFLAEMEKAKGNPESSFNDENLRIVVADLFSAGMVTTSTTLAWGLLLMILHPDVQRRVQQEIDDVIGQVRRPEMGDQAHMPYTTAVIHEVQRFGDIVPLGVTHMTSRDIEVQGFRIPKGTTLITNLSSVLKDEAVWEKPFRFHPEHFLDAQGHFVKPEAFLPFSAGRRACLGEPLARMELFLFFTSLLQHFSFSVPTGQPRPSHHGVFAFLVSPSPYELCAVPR
Chain of CYP450 2C19 (P33261 whole entry): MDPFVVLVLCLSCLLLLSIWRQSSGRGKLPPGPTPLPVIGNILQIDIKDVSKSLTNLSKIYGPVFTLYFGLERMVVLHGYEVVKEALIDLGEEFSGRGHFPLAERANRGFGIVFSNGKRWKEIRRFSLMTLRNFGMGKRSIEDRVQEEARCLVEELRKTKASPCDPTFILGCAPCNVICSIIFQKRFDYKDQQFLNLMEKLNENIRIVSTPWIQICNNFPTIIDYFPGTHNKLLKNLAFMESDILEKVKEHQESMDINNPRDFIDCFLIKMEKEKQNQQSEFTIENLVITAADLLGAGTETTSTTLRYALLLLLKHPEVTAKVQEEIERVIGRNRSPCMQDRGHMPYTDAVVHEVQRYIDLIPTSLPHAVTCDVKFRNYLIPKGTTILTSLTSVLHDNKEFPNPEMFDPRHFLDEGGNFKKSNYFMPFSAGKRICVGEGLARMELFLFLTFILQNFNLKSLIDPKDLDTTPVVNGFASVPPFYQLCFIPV
Chain of hERG Channel (Q12809 whole entry): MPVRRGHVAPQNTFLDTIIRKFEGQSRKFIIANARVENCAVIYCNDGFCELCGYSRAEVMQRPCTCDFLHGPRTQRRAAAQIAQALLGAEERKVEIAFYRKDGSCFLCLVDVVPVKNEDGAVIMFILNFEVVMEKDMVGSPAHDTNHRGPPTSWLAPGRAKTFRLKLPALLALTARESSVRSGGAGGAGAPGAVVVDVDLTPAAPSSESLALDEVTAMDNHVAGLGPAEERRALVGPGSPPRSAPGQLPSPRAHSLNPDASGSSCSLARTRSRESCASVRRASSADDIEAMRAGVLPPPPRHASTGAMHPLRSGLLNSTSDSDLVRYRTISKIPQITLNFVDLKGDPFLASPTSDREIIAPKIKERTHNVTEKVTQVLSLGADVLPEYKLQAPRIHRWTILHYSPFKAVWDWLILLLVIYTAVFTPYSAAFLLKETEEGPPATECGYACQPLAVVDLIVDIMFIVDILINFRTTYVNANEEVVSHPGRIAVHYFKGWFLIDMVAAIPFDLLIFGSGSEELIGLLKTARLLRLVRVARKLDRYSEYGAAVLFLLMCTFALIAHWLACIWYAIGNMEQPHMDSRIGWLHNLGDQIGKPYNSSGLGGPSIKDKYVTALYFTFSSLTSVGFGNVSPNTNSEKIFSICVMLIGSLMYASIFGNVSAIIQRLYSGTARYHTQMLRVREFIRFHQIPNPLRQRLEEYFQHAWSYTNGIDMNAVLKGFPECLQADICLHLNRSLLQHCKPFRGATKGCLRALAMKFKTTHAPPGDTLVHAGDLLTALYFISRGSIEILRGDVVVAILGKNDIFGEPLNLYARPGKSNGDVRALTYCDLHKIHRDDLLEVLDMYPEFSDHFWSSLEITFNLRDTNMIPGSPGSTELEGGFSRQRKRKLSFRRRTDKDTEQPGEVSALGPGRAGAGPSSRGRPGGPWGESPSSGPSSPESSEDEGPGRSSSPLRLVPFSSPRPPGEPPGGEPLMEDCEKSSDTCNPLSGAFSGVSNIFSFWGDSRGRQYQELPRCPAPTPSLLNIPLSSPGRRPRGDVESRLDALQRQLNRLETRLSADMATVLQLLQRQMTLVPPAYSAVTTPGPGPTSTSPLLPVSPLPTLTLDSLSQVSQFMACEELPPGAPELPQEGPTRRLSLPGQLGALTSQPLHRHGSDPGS

Work on `CNS(=O)(=O)Nc1cccc(Cc2c(CNCC(=O)N3CCNCC3)c3ccc(OC(=O)N(C)C)cc3oc2=O)c1F` [Compound 191] yielded an activity at 10 µM [1] of 7.34%, an activity at 0.01 µM (A549 pERK) of 131% and an activity at 10 µM (A549 pERK) of 8.6%.
With `CNS(=O)(=O)Nc1cccc(Cc2c(C)c3ccc(OC(=O)N(C)C)cc3oc2=O)c1F` [Compound 7] the “CD-1 Mouse (% Reamining @1 hour)” value [2] was 29.6%, the “Human (% Reamining @1 hour)” value [3] was 61.1% and the “3A4*” value (CYP450 3A4; substrate midazolam) was 29.9. The “3A4^” value (CYP450 3A4; substrate testosterone) was 59.7, the IC50 (hERG Channel) was 28.6 µM and the “1A2*” value (CYP450 1A2) was 0.3. The “2D6*” value (CYP450 2D6) was −7.4, the “2C19*” value (CYP450 2C19) was 11.6 and the “2B6*” value (CYP450 2B6) was 28.5. For the same compound, the “Human (% Reamining @2 hour)” value (Plasma stability, human) was 88.1%, the “2C8*” value (CYP450 2C8) was 14.4 and the “CD-1 Mouse (% Reamining @2 hour)” value [4] was 56.5%. For the same compound, the “Beagle Dog (% Reamining @2 hour)” value [5] was 99.8%, the “2C9*” value (CYP450 2C9) was 33.8 and the “Beagle Dog (% Reamining @1 hour)” value [6] was 57.0%.
`CNS(=O)(=O)Nc1cccc(Cc2c(CN3CCNCC3)c3cc(F)c(OC(=O)N(C)C)cc3oc2=O)c1F` [Compound 134] showed an activity at 10 µM [1] of 23.4%, an activity at 0.01 µM (A549 pERK) of 33.1% and an activity at 0.1 µM [7] of 26.9%.
For `CNS(=O)(=O)Nc1cccc(Cc2c(CNC(=O)OCCO)c3ccc(OC(=O)N(C)C)cc3oc2=O)c1F` [Compound 185], the “pERK: total ERK (% relative to vehicle)” value [1] was 7.39%.
In the case of `CNS(=O)(=O)Nc1cccc(Cc2c(CNC(=O)OCCO)c3ccc(OC(=O)N(C)C)cc3oc2=O)c1F` [Compound 106], the “pERK: total ERK (% relative to vehicle)” value [1] is reported as 27.88% and the activity at 10 µM (A549 pERK) is reported as 27.9%.

Reference: US20250270180A1, “MEK INHIBITORS AND THERAPEUTIC USES THEREOF” (Immuneering Corporation, priority 2020, published 2025)
